# Data taken from ChEMBL document CHEMBL1201862, “PubChem BioAssay data set” (2004).
#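 Following 48 hours of exposure in 96-well plates, responses at five concentrations were used to interpolate endpoints linearly. GI50 = concentration required for 50% inhibition of growth.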 Calls of active or inactive are those of the source. Rule as the data show it: active = GI50 up to about 1.1 µM and inactive = higher.
# How the values were obtained:
# Test in all cases: inhibition of tumour cell growth, NCI panel, 48 h
# SK-MEL-28 = test system: SK-MEL-28
# SW-620 = test system: SW-620
# OVCAR-4 = test system: OVCAR-4
# MCF7 = test system: MCF7
# OVCAR-8 = test system: OVCAR-8
# A549 = test system: A549
# COLO 205 = test system: COLO 205
# DU-145 = test system: DU-145
# BT-549 = test system: BT-549
# RXF 393 = test system: RXF 393
# Malme-3M = test system: Malme-3M
# MDA-MB-435 = test system: MDA-MB-435
# U-251 = test system: U-251
# MDA-N = test system: MDA-N
# HL-60 = test system: HL-60
# A498 = test system: A498
# MOLT-4 = test system: MOLT-4
# MDA-MB-231 = test system: MDA-MB-231
# NCI-H460 = test system: NCI-H460
# SNB-75 = test system: SNB-75
# HCC 2998 = test system: HCC 2998
# EKVX = test system: EKVX
# NCI-H522 = test system: NCI-H522
# SK-OV-3 = test system: SK-OV-3
# SF-539 = test system: SF-539
# SR = test system: SR
# NCI/ADR-RES = test system: NCI/ADR-RES
# NCI-H23 = test system: NCI-H23
# Hs-578T = test system: Hs-578T
# NCI-H226 = test system: NCI-H226
# KM12 = test system: KM12
# 786-0 = test system: 786-0
# SN12C = test system: SN12C
# HT-29 = test system: HT-29
# LOX IMVI = test system: LOX IMVI
# SK-MEL-5 = test system: SK-MEL-5
# SF-295 = test system: SF-295
# PC-3 = test system: PC-3
# HOP-92 = test system: HOP-92
# UACC-257 = test system: UACC-257
# T47D = test system: T47D
# UO-31 = test system: UO-31
# CAKI-1 = test system: CAKI-1
# UACC-62 = test system: UACC-62
# HCT-116 = test system: HCT-116
# OVCAR-5 = test system: OVCAR-5
# CCRF-CEM = test system: CCRF-CEM
# ACHN = test system: ACHN
# HOP-62 = test system: HOP-62
# OVCAR-3 = test system: OVCAR-3
# IGROV-1 = test system: IGROV-1
# TK-10 = test system: TK-10
# SF-268 = test system: SF-268
# HCT-15 = test system: HCT-15
# K562 = test system: K562
# RPMI-8226 = test system: RPMI-8226
# SK-MEL-2 = test system: SK-MEL-2
# M14 = test system: M14
# SNB-19 = test system: SNB-19
compound,measurement,setting,value
COC(=O)c1c2c(cc3c1CC1(Cc4ccccc4C1)C3)CCC2,GI50,SK-MEL-28,24.2 µM (inactive)
same,GI50,SW-620,14.2 µM (inactive)
same,GI50,OVCAR-4,37.8 µM (inactive)
same,GI50,MCF7,6.38 µM (inactive)
same,GI50,OVCAR-8,35.2 µM (inactive)
same,GI50,A549,28.7 µM (inactive)
same,GI50,COLO 205,16.6 µM (inactive)
same,GI50,DU-145,47.4 µM (inactive)
same,GI50,BT-549,20.9 µM (inactive)
same,GI50,RXF 393,16.9 µM (inactive)
same,GI50,Malme-3M,20.2 µM (inactive)
same,GI50,MDA-MB-435,8.91 µM (inactive)
same,GI50,U-251,20.9 µM (inactive)
same,GI50,MDA-N,6.27 µM (inactive)
same,GI50,HL-60,17.3 µM (inactive)
same,GI50,A498,25.9 µM (inactive)
same,GI50,MOLT-4,17.1 µM (inactive)
same,GI50,MDA-MB-231,14.8 µM (inactive)
same,GI50,NCI-H460,30.5 µM (inactive)
same,GI50,SNB-75,26.2 µM (inactive)
same,GI50,HCC 2998,33.1 µM (inactive)
same,GI50,EKVX,25.6 µM (inactive)
same,GI50,NCI-H522,14 µM (inactive)
same,GI50,SK-OV-3,31.4 µM (inactive)
same,GI50,SF-539,39.5 µM (inactive)
same,GI50,SR,16.5 µM (inactive)
same,GI50,NCI/ADR-RES,22.2 µM (inactive)
same,GI50,NCI-H23,31.3 µM (inactive)
same,GI50,Hs-578T,22.9 µM (inactive)
same,GI50,NCI-H226,31.7 µM (inactive)
same,GI50,KM12,13 µM (inactive)
same,GI50,786-0,27.9 µM (inactive)
same,GI50,SN12C,16.9 µM (inactive)
same,GI50,HT-29,13.8 µM (inactive)
same,GI50,LOX IMVI,15.9 µM (inactive)
same,GI50,SK-MEL-5,13.5 µM (inactive)
same,GI50,SF-295,24.5 µM (inactive)
same,GI50,PC-3,13.8 µM (inactive)
same,GI50,HOP-92,36.9 µM (inactive)
same,GI50,UACC-257,17.6 µM (inactive)
same,GI50,T47D,15.8 µM (inactive)
same,GI50,UO-31,13 µM (inactive)
same,GI50,CAKI-1,19.8 µM (inactive)
same,GI50,UACC-62,20.9 µM (inactive)
same,GI50,HCT-116,21.7 µM (inactive)
same,GI50,OVCAR-5,25.2 µM (inactive)
same,GI50,CCRF-CEM,17.2 µM (inactive)
same,GI50,ACHN,23.8 µM (inactive)
same,GI50,HOP-62,28.2 µM (inactive)
same,GI50,OVCAR-3,18.9 µM (inactive)
same,GI50,IGROV-1,22.5 µM (inactive)
same,GI50,TK-10,61.8 µM (inactive)
same,GI50,SF-268,36.6 µM (inactive)
same,GI50,HCT-15,23 µM
same,GI50,K562,4.32 µM (inactive)
same,GI50,RPMI-8226,17.9 µM (inactive)
CC(=O)OCC1OC(SC2=NC(=O)/C(=C/c3ccccc3)S2)C(OC(C)=O)C(OC(C)=O)C1OC(C)=O (stereo not drawn),GI50,SK-MEL-28,30.8 µM (inactive)
same,GI50,SW-620,23.8 µM (inactive)
same,GI50,OVCAR-4,32 µM (inactive)
same,GI50,MCF7,18.9 µM (inactive)
same,GI50,OVCAR-8,14.6 µM (inactive)
same,GI50,A549,44 µM (inactive)
same,GI50,COLO 205,45.6 µM (inactive)
same,GI50,DU-145,95.1 µM (inactive)
same,GI50,BT-549,28.4 µM (inactive)
same,GI50,RXF 393,26 µM (inactive)
same,GI50,Malme-3M,23.7 µM (inactive)
same,GI50,MDA-MB-435,17 µM (inactive)
same,GI50,U-251,30.9 µM (inactive)
same,GI50,MDA-N,26.8 µM (inactive)
same,GI50,HL-60,14.5 µM (inactive)
same,GI50,A498,29 µM (inactive)
same,GI50,MOLT-4,21.8 µM (inactive)
same,GI50,MDA-MB-231,23.3 µM (inactive)
same,GI50,SK-MEL-2,80.4 µM (inactive)
same,GI50,NCI-H460,42.2 µM (inactive)
same,GI50,SNB-75,18.2 µM (inactive)
same,GI50,HCC 2998,28.8 µM (inactive)
same,GI50,EKVX,21.2 µM (inactive)
same,GI50,NCI-H522,32.9 µM (inactive)
same,GI50,SK-OV-3,45.7 µM (inactive)
same,GI50,SF-539,23 µM (inactive)
same,GI50,SR,10.9 µM (inactive)
same,GI50,NCI/ADR-RES,30.4 µM (inactive)
same,GI50,NCI-H23,52.5 µM (inactive)
same,GI50,M14,31.9 µM (inactive)
same,GI50,SNB-19,35.1 µM (inactive)
same,GI50,Hs-578T,23.3 µM (inactive)
same,GI50,NCI-H226,33.8 µM (inactive)
same,GI50,KM12,36.9 µM (inactive)
same,GI50,786-0,16.9 µM (inactive)
same,GI50,SN12C,49.8 µM (inactive)
same,GI50,HT-29,37.8 µM (inactive)
same,GI50,LOX IMVI,22.4 µM (inactive)
same,GI50,SK-MEL-5,18.8 µM (inactive)
same,GI50,SF-295,62.8 µM (inactive)
same,GI50,PC-3,40.1 µM (inactive)
same,GI50,HOP-92,15.7 µM (inactive)
same,GI50,UACC-257,34.2 µM (inactive)
same,GI50,T47D,24.2 µM (inactive)
same,GI50,UO-31,23.1 µM (inactive)
same,GI50,CAKI-1,3.78 µM (inactive)
same,GI50,UACC-62,21.1 µM (inactive)
same,GI50,HCT-116,29.4 µM (inactive)
same,GI50,OVCAR-5,> 100 µM (inactive)
same,GI50,CCRF-CEM,28.4 µM (inactive)
same,GI50,ACHN,48.2 µM (inactive)
same,GI50,HOP-62,38.5 µM (inactive)
same,GI50,OVCAR-3,19.7 µM (inactive)
same,GI50,IGROV-1,35.8 µM (inactive)
same,GI50,SF-268,20.1 µM (inactive)
same,GI50,HCT-15,59 µM
same,GI50,RPMI-8226,24.4 µM (inactive)
